Test: mn = molality of the nth substance listed, in mol/kg
Conditions: 350 kPa, Liquid, Extra sensitive DSC

NC(CO)C(=O)O (centres undefined) [(.+-.)-serine] + O
apparent molar heat capacity [J/K/mol]
Conditions | m1 = 0.015 | m1 = 0.0308 | m1 = 0.0509 | m1 = 0.0807 | m1 = 0.1251 | m1 = 0.2505
278.15 K | 50 | 53.4 | 56.4 | 56.6 | 57.8 | 68
283.15 K | 71 | 74.1 | 76.7 | 76.7 | 77.7 | 86.3
288.15 K | 87 | 90.3 | 92.6 | 92.6 | 93.2 | 101
293.15 K | 101 | 103.7 | 105.7 | 105.8 | 106.1 | 113.1
298.15 K | 112 | 114.5 | 116.5 | 116.5 | 116.7 | 123
303.15 K | 121 | 123.9 | 125.8 | 125.7 | 125.7 | 131.4
308.15 K | 130 | 132.2 | 133.9 | 133.6 | 133.4 | 138.6
313.15 K | 137 | 139.3 | 140.7 | 140.4 | 140.2 | 144.9
318.15 K | 143 | 145.2 | 146.5 | 146.2 | 145.8 | 150.2
323.15 K | 149 | 150.3 | 151.6 | 151.3 | 150.9 | 154.9
328.15 K | 154 | 155 | 156.2 | 155.8 | 155.3 | 158.9
333.15 K | 158 | 159.4 | 160.4 | 159.9 | 159.3 | 162.6
338.15 K | 162 | 163.3 | 164.2 | 163.6 | 162.9 | 165.92
343.15 K | 166 | 166.3 | 167.2 | 166.6 | 165.9 | 168.74
348.15 K | 168 | 169 | 170.1 | 169.5 | 168.8 | 171.27
353.15 K | 170 | 171.6 | 172.5 | 172.1 | 171.2 | 173.56
358.15 K | 172 | 173.7 | 174.6 | 174 | 173.1 | 175.45
363.15 K | 174 | 175.7 | 176.6 | 176.2 | 175.3 | 177.16
368.15 K | 175 | 177.9 | 178.6 | 178.4 | 177 | 178.66
373.15 K | 177 | 179.9 | 180.5 | 179.7 | 178.2 | 179.8
378.15 K | 177 | 180.9 | 181.3 | 180.7 | 179.3 | 180.67
383.15 K | 177 | 181.7 | 182.2 | 181.5 | 180.2 | 181.46
388.15 K | 175 | 182.6 | 183 | 182.2 | 180.9 | 181.91
393.15 K | 173 | 183.3 | 183.3 | 182.8 | 181.6 | 182.2
